The nature of data set [1]: Inhibition of HIV Tat transactivation in human 63A9 cells by luciferase based reporter gene assay. In kind it is cell-based, Human immunodeficiency virus.
The nature of data set [2]: Cytotoxicity against human 63A9 cells at 25 uM by MTS assay. It is filed as cell-based. Conditions: 63a9, 25 µM; call rule not given here.
Data set [3] deals with Human immunodeficiency virus. Briefly: Antiviral activity against HIV H9/3B in HeLa P4/P5 cells after 48 hrs by vertical assay. In kind it is functional, organism-based. Conditions: Human immunodeficiency virus 1, H9/3B.
A short description of data set [4]: Cytotoxicity against human HeLa P4/P5 cells up to 5 uM. In kind it is cell-based.
Where [5] appears, read: Human immunodeficiency virus 1, 63A9, read-out: IC50.

Take `CCC(C)c1c(O)cc2cc3c(c(O)c2c1O)C(=O)C(O)C(C(OC)C(=O)C(O)C(C)O)C3` (stereo unspecified): in data set [1] (63a9), the IC50 entry was “Not Active”.
Turning to `CCC(C)c1c(O[C@H]2C[C@@H](O[C@H]3C[C@@H](O)[C@H](O)[C@@H](C)O3)[C@H](O)[C@@H](C)O2)cc2cc3c(c(O)c2c1O)C(=O)C(O[C@H]1C[C@@H](O[C@H]2C[C@@H](O[C@H]4C[C@@H](O[C@H]5C[C@@H](O)[C@H](O)[C@@H](C)O5)[C@H](O)[C@@H](C)O4)[C@@H](OC(C)=O)[C@@H](C)O2)[C@H](O)[C@@H](C)O1)C(C(OC)C(=O)C(O)C(C)O)C3` (stereo partly specified) [DURHAMYCIN A], the IC50 in data set [1] (setting [5]) stood at 4.8 nM; in data set [3], 11.6 nM. In addition, the Activity result in data set [2] and in data set [4] was “Non-toxic” in each case.
`CCC(C)c1c(O[C@H]2C[C@@H](O[C@H]3C[C@@H](O)[C@H](O)[C@@H](C)O3)[C@H](O)[C@@H](C)O2)cc2cc3c(c(O)c2c1O)C(=O)C(O[C@H]1C[C@@H](O[C@H]2C[C@@H](O[C@H]4C[C@@H](O)[C@H](O)[C@@H](C)O4)[C@@H](OC(C)=O)[C@@H](C)O2)[C@H](O)[C@@H](C)O1)C(C(OC)C(=O)C(O)C(C)O)C3` (stereo partly specified) [DURHAMYCIN B]: in data set [1] (setting [5]), the IC50 was determined as 48 nM.

(Values after ChEMBL document CHEMBL1156409, “Durhamycin A, a potent inhibitor of HIV Tat transactivation” (J Nat Prod, 2002).)
